We go through ten molecules from patent publication US20220177508A1, “C10-Cyclic Substituted 13-Membered Macrolides and Uses Thereof” (Zikani Therapeutics, Inc., priority 2018, published 2022).

What is called MIC is the lowest concentration found to suppress growth.

Holding throughout (type): cell-based
One assay concerns S. aureus MP-12. Briefly: Broth dilution MIC determination (CLSI), S. aureus MP-12. The note with it: Staphylococcus aureus, MP12; strain MP-12, broth dilution. Background: Broth dilution looks for growth in wells or tubes with falling amounts of substance.
Another assay deals with E. coli MP-4. Briefly: Broth dilution MIC determination (CLSI), E. coli MP-4. As to conditions: Escherichia coli.
The test system of the next assay is K. pneumoniae MP-546. The experiment in a line: Broth dilution MIC determination (CLSI), K. pneumoniae MP-546. As to conditions: Klebsiella pneumoniae, MP546; strain MP-546, broth dilution.
The subject of a further assay is P. aeruginosa MP-3. The experiment in a line: Broth dilution MIC determination (CLSI), P. aeruginosa MP-3. The note with it: Pseudomonas aeruginosa, MP3; strain MP-3, broth dilution.
In another assay the test system is A. baumannii MP-15. The experiment in a line: Broth dilution MIC determination (CLSI), A. baumannii MP-15. The note with it: Acinetobacter baumannii, MP15; strain MP-15, broth dilution; read-out: MIC A. baumanii MP-15.
[1] abbreviates: MP4, strain MP-4, broth dilution, read-out: MIC E. coli MP-4.

In brackets after ≈: the same amount, converted by molar mass. Where two headings read alike, the source gives them in different places. Some results are limits rather than exact numbers.

As for `CO[C@]1(C)C[C@@H](C)CN(C)[C@H](C2CCN(C(C)C)CC2)[C@H](C)OC(=O)C(C)(C)C(=O)[C@H](C)[C@H]1O[C@@H]1O[C@H](C)C[C@H](N(C)C)[C@H]1O` [Compound 147, (2S,3R,6R,8R,9R,10R)-9-(((2S,3R,4S,6R)-4-(dimethylamino)-3-hydroxy-6-methyltetrahydro-2H-pyran-2-yl)oxy)-3-(1-isopropylpiperidin-4-yl)-8-methoxy-2,4,6,8,10,12,12-heptamethyl-1-oxa-4-azacyclotridecane-11,13-dione], the MIC in the assay on S. aureus MP-12 was more than 32 µg/mL; with E. coli MP-4 (setting [1]), 4 to 32 µg/mL (≈ 6.25 to 50 µM); in the assay on K. pneumoniae MP-546, 4 to 32 µg/mL (≈ 6.25 to 50 µM); in the assay on P. aeruginosa MP-3 it was more than 32 µg/mL; with A. baumannii MP-15, more than 32 µg/mL.

For `CO[C@]1(C)C[C@@H](C)CN(C)[C@H]([C@@H]2CCN(C(=O)CN(C)C)C2)COC(=O)C(C)(C)C(=O)[C@H](C)[C@H]1O[C@@H]1O[C@H](C)C[C@H](N(C)C)[C@H]1O` [Compound 148, (3R,6R,8R,9R,10R)-9-(((2S,3R,4S,6R)-4-(Dimethylamino)-3-hydroxy-6-methyltetrahydro-2H-pyran-2-yl)oxy)-3-((R)-1-(dimethylglycyl)pyrrolidin-3-yl)-8-methoxy-4,6,8,10,12,12-hexamethyl-1-oxa-4-azacyclotridecane-11,13-dione], the MIC with S. aureus MP-12 is more than 32 µg/mL; with E. coli MP-4 (setting [1]), less than 4 µg/mL; against K. pneumoniae MP-546, 4 to 32 µg/mL (≈ 6.11 to 48.9 µM); in the assay on P. aeruginosa MP-3 it was more than 32 µg/mL; with A. baumannii MP-15, more than 32 µg/mL.

Turning to `CO[C@]1(C)C[C@@H](C)CN(C)[C@@H](C2CN(C(=O)C(C)(C)N(C)C)C2)COC(=O)C(C)(C)C(=O)[C@H](C)[C@H]1O[C@@H]1O[C@H](C)C[C@H](N(C)C)[C@H]1O` [Compound 149], the MIC was more than 32 µg/mL in the assay with S. aureus MP-12; less than 4 µg/mL in the assay on E. coli MP-4 (setting [1]); 4 to 32 µg/mL (≈ 5.98 to 47.8 µM) with K. pneumoniae MP-546; more than 32 µg/mL against P. aeruginosa MP-3; more than 32 µg/mL in the assay with A. baumannii MP-15.

For the molecule `CO[C@]1(C)C[C@@H](C)CN(C)[C@H](C2CN(C(=O)CN3CC(F)(F)C3)C2)COC(=O)C(C)(C)C(=O)[C@H](C)[C@H]1O[C@@H]1O[C@H](C)C[C@H](N(C)C)[C@H]1O` [Compound 154, (3R,6R,8R,9R,10R)-3-(1-(2-(3,3-difluoroazetidin-1-yl)acetyl)azetidin-3-yl)-9-(((2S,3R,4S,6R)-4-(dimethylamino)-3-hydroxy-6-methyltetrahydro-2H-pyran-2-yl)oxy)-8-methoxy-4,6,8,10,12,12-hexamethyl-1-oxa-4-azacyclotridecane-11,13-dione], the MIC in the assay with S. aureus MP-12 is 4 to 32 µg/mL (≈ 5.81 to 46.5 µM); in the assay on E. coli MP-4 (setting [1]), less than 4 µg/mL; against K. pneumoniae MP-546, 4 to 32 µg/mL (≈ 5.81 to 46.5 µM); in the assay with P. aeruginosa MP-3, more than 32 µg/mL; in the assay on A. baumannii MP-15, more than 32 µg/mL.

For `CO[C@]1(C)C[C@@H](C)CN(C)[C@H](C2CN(CC=C(C)C)C2)COC(=O)C(C)(C)C(=O)[C@H](C)[C@H]1O[C@@H]1O[C@H](C)C[C@H](N(C)C)[C@H]1O` [Compound 155, (3R,6R,8R,9R,10R)-9-(((2S,3R,4S,6R)-4-(dimethylamino)-3-hydroxy-6-methyltetrahydro-2H-pyran-2-yl)oxy)-8-methoxy-4,6,8,10,12,12-hexamethyl-3-(1-(3-methylbut-2-en-1-yl)azetidin-3-yl)-1-oxa-4-azacyclotridecane-11,13-dione], the MIC is 4 to 32 µg/mL (≈ 6.41 to 51.3 µM) with S. aureus MP-12; less than 4 µg/mL in the assay on E. coli MP-4 (MP4, read-out: MIC E. coli MP-4); less than 4 µg/mL in the assay with K. pneumoniae MP-546; more than 32 µg/mL with P. aeruginosa MP-3; 4 to 32 µg/mL (≈ 6.41 to 51.3 µM) with A. baumannii MP-15.

Turning to `CCN(C)[C@H]1CC[C@H]([C@H]2COC(=O)C(C)(C)C(=O)[C@H](C)[C@@H](O[C@@H]3O[C@H](C)C[C@H](N(C)C)[C@H]3O)[C@](C)(OC)C[C@@H](C)CN2C)CC1` [Compound 157, (3S,6R,8R,9R,10R)-9-(((2S,3R,4S,6R)-4-(dimethylamino)-3-hydroxy-6-methyltetrahydro-2H-pyran-2-yl)oxy)-3-((1r,4S)-4-(ethyl(methyl)amino)cyclohexyl)-8-methoxy-4,6,8,10,12,12-hexamethyl-1-oxa-4-azacyclotridecane-11,13-dione], the MIC is more than 32 µg/mL in the assay on S. aureus MP-12; 4 to 32 µg/mL (≈ 6.25 to 50 µM) with E. coli MP-4 (setting [1]); 4 to 32 µg/mL (≈ 6.25 to 50 µM) with K. pneumoniae MP-546; more than 32 µg/mL in the assay with P. aeruginosa MP-3; more than 32 µg/mL in the assay on A. baumannii MP-15.

As for `CO[C@]1(C)C[C@@H](C)CN(C)[C@H](C2CCN(C(=O)CN(C)C)CC2)[C@H](C)OC(=O)C(C)(C)C(=O)[C@H](C)[C@H]1O[C@@H]1O[C@H](C)C[C@H](N(C)C)[C@H]1O` [Compound 159, (2S,3R,6R,8R,9R,10R)-9-(((2S,3R,4S,6R)-4-(dimethylamino)-3-hydroxy-6-methyltetrahydro-2H-pyran-2-yl)oxy)-3-(1-(dimethylglycyl)piperidin-4-yl)-8-methoxy-2,4,6,8,10,12,12-heptamethyl-1-oxa-4-azacyclotridecane-11,13-dione], the minimum inhibitory concentration (MIC) in the assay with S. aureus MP-12 was more than 32 µg/mL; in the assay with E. coli MP-4 (setting [1]), 4 to 32 µg/mL (≈ 5.86 to 46.9 µM); with K. pneumoniae MP-546, more than 32 µg/mL; with P. aeruginosa MP-3 it was more than 32 µg/mL; in the assay with A. baumannii MP-15, more than 32 µg/mL.

`CO[C@]1(C)C[C@@H](C)CN(C)[C@H]([C@H]2CCN(C)C2)COC(=O)C(C)(C)C(=O)[C@H](C)[C@H]1O[C@@H]1O[C@H](C)C[C@H](N(C)C)[C@H]1O` [Compound 166, (3R,6R,8R,9R,10R)-9-(((2S,3R,4S,6R)-4-(Dimethylamino)-3-hydroxy-6-methyltetrahydro-2H-pyran-2-yl)oxy)-8-methoxy-4,6,8,10,12,12-hexamethyl-3-((S)-1-methylpyrrolidin-3-yl)-1-oxa-4-azacyclotridecane-11,13-dione]: the MIC in the assay on S. aureus MP-12 is more than 32 µg/mL; in the assay on E. coli MP-4 (setting [1]), less than 4 µg/mL; in the assay on K. pneumoniae MP-546, less than 4 µg/mL; against P. aeruginosa MP-3, more than 32 µg/mL; with A. baumannii MP-15 it was more than 32 µg/mL.

In the case of `CO[C@]1(C)C[C@@H](C)CN(C)[C@H](C2CN(C(=O)CC(C)(C)CN(C)CC(C)C)C2)COC(=O)C(C)(C)C(=O)[C@H](C)[C@H]1O[C@@H]1O[C@H](C)C[C@H](N(C)C)[C@H]1O` [Compound 167, (3R,6R,8R,9R,10R)-9-(((2S,3R,4S,6R)-4-(dimethylamino)-3-hydroxy-6-methyltetrahydro-2H-pyran-2-yl)oxy)-3-(1-(4-(isobutyl(methyl)amino)-3,3-dimethylbutanoyl)azetidin-3-yl)-8-methoxy-4,6,8,10,12,12-hexamethyl-1-oxa-4-azacyclotridecane-11,13-dione], the minimum inhibitory concentration (MIC) against S. aureus MP-12 is 4 to 32 µg/mL (≈ 5.41 to 43.3 µM); with E. coli MP-4 (setting [1]), less than 4 µg/mL; in the assay on K. pneumoniae MP-546 it was 4 to 32 µg/mL (≈ 5.41 to 43.3 µM); with P. aeruginosa MP-3 it was more than 32 µg/mL; in the assay with A. baumannii MP-15, more than 32 µg/mL.

On to `CO[C@]1(C)C[C@@H](C)CN(C)[C@@H]([C@@H]2CCN(C(=O)CN(C)C)C2)COC(=O)C(C)(C)C(=O)[C@H](C)[C@H]1O[C@@H]1O[C@H](C)C[C@H](N(C)C)[C@H]1O` [Compound 169, (3S,6R,8R,9R,10R)-9-(((2S,3R,4S,6R)-4-(Dimethylamino)-3-hydroxy-6-methyltetrahydro-2H-pyran-2-yl)oxy)-3-((R)-1-(dimethylglycyl)pyrrolidin-3-yl)-8-methoxy-4,6,8,10,12,12-hexamethyl-1-oxa-4-azacyclotridecane-11,13-dione], for which the MIC was 4 to 32 µg/mL (≈ 6.11 to 48.9 µM) with S. aureus MP-12; less than 4 µg/mL with E. coli MP-4 (setting [1]); 4 to 32 µg/mL (≈ 6.11 to 48.9 µM) against K. pneumoniae MP-546; more than 32 µg/mL with P. aeruginosa MP-3; more than 32 µg/mL with A. baumannii MP-15.
